Laboratory results from ChEMBL document CHEMBL3885881, “DrugMatrix”.

Species on record: Rattus norvegicus
Test: DrugMatrix - Regimen: Daily Repeat
Format: toxicity, organism-based, Sprague-Dawley
Design: regimen Daily Repeat, gender Male, age 6-8 weeks
Conditions: in vivo, po, route oral GAVAGE, […]; for ABSOLUTE BASOPHIL / ABSOLUTE EOSINOPHIL / ABSOLUTE LYMPHOCYTE / ABSOLUTE MONOCYTE / BASOPHIL / EOSINOPHIL / ERYTHROCYTE COUNT / HEMATOCRIT / HEMOGLOBIN / LEUKOCYTE COUNT / LYMPHOCYTE / MEAN CORPUSCULAR HEMOGLOBIN / MEAN CORPUSCULAR HEMOGLOBIN CONCENTRATION / MEAN CORPUSCULAR VOLUME / MONOCYTE / NEUTROPHIL / PLATELET COUNT: tissue Blood
[1] = 0 mg/kg, 72 h, dose level Control, time 3 day
[2] = 0 mg/kg, 72 h, tissue Plasma, dose level Control, time 3 day
[3] = 0 mg/kg, 120 h, dose level Control, time 5 day
[4] = 0 mg/kg, 120 h, tissue Plasma, dose level Control, time 5 day
[5] = 0 mg/kg, dose level Control, time 14 day
[6] = 0 mg/kg, tissue Plasma, dose level Control, time 14 day
[7] = 40 mg/kg, 72 h, dose level Low, time 3 day
[8] = 40 mg/kg, 72 h, tissue Plasma, dose level Low, time 3 day

C=CCN [ALLYLAMINE]
ABSOLUTE BASOPHIL [1]: 50 cells/µL
ABSOLUTE EOSINOPHIL [1]: 43.3 cells/µL
ABSOLUTE LYMPHOCYTE [1]: 9670 cells/µL
ABSOLUTE MONOCYTE [1]: 210 cells/µL
BASOPHIL [1]: 0.4%
EOSINOPHIL [1]: 0.37%
ERYTHROCYTE COUNT [1]: 6.82 x10E6/uL
HEMATOCRIT [1]: 46.77%
HEMOGLOBIN [1]: 14.53 G/DL
LEUKOCYTE COUNT [1]: 11.77 x10E3/uL
LYMPHOCYTE [1]: 82.1%
MEAN CORPUSCULAR HEMOGLOBIN [1]: 21.33 pg
MEAN CORPUSCULAR HEMOGLOBIN CONCENTRATION [1]: 31.13 G/DL
MEAN CORPUSCULAR VOLUME [1]: 68.57 fL
MONOCYTE [1]: 1.8%
NEUTROPHIL [1]: 14.83%
PLATELET COUNT [1]: 1303.33 x10E3/uL
ALANINE AMINOTRANSFERASE [2]: 46.67 u/L
ALBUMIN [2]: 4.17 G/DL
ALKALINE PHOSPHATASE [2]: 530 u/L
ASPARTATE AMINOTRANSFERASE [2]: 81.33 u/L
BLOOD UREA NITROGEN [2]: 17.67 mg/dL
CARBON DIOXIDE [2]: 41.67 mmol/L
CHLORIDE [2]: 102 MEQ/L
CHOLESTEROL [2]: 70.33 mg/dL
CREATINE PHOSPHOKINASE [2]: 372.67 u/L
CREATININE [2]: 0.5 mg/dL
GLUCOSE [2]: 184 mg/dL
LIPASE [2]: 13.33 u/L
PHOSPHORUS [2]: 10.2 mg/dL
POTASSIUM [2]: 6.13 MEQ/L
SODIUM [2]: 145 MEQ/L
TOTAL BILIRUBIN [2]: 0.43 mg/dL
TOTAL PROTEIN [2]: 6.7 G/DL
URIC ACID [2]: 0.83 mg/dL
ABSOLUTE BASOPHIL [3]: 33.3 cells/µL
ABSOLUTE EOSINOPHIL [3]: 56.7 cells/µL
ABSOLUTE LYMPHOCYTE [3]: 9220 cells/µL
ABSOLUTE MONOCYTE [3]: 230 cells/µL
BASOPHIL [3]: 0.3%
EOSINOPHIL [3]: 0.5%
ERYTHROCYTE COUNT [3]: 6.62 x10E6/uL
HEMATOCRIT [3]: 46.43%
HEMOGLOBIN [3]: 14.3 G/DL
LEUKOCYTE COUNT [3]: 10.96 x10E3/uL
LYMPHOCYTE [3]: 83.83%
MEAN CORPUSCULAR HEMOGLOBIN [3]: 21.57 pg
MEAN CORPUSCULAR HEMOGLOBIN CONCENTRATION [3]: 30.77 G/DL
MEAN CORPUSCULAR VOLUME [3]: 70.13 fL
MONOCYTE [3]: 2.1%
NEUTROPHIL [3]: 12.53%
PLATELET COUNT [3]: 1056.67 x10E3/uL
ALANINE AMINOTRANSFERASE [4]: 41.33 u/L
ALBUMIN [4]: 4.07 G/DL
ALKALINE PHOSPHATASE [4]: 603.33 u/L
ASPARTATE AMINOTRANSFERASE [4]: 80 u/L
BLOOD UREA NITROGEN [4]: 14.67 mg/dL
CARBON DIOXIDE [4]: 43 mmol/L
CHLORIDE [4]: 104 MEQ/L
CHOLESTEROL [4]: 88.33 mg/dL
CREATINE PHOSPHOKINASE [4]: 391.67 u/L
CREATININE [4]: 0.47 mg/dL
GLUCOSE [4]: 156 mg/dL
LIPASE [4]: 10.67 u/L
PHOSPHORUS [4]: 9.03 mg/dL
POTASSIUM [4]: 6.1 MEQ/L
SODIUM [4]: 145.67 MEQ/L
TOTAL BILIRUBIN [4]: 0.37 mg/dL
TOTAL PROTEIN [4]: 6.53 G/DL
URIC ACID [4]: 0.5 mg/dL
ABSOLUTE BASOPHIL [5]: 73.3 cells/µL
ABSOLUTE EOSINOPHIL [5]: 60 cells/µL
ABSOLUTE LYMPHOCYTE [5]: 12200 cells/µL
ABSOLUTE MONOCYTE [5]: 250 cells/µL
BASOPHIL [5]: 0.5%
EOSINOPHIL [5]: 0.37%
ERYTHROCYTE COUNT [5]: 7.33 x10E6/uL
HEMATOCRIT [5]: 44.3%
HEMOGLOBIN [5]: 14.77 G/DL
LEUKOCYTE COUNT [5]: 14.86 x10E3/uL
LYMPHOCYTE [5]: 81.87%
MEAN CORPUSCULAR HEMOGLOBIN [5]: 20.2 pg
MEAN CORPUSCULAR HEMOGLOBIN CONCENTRATION [5]: 33.33 G/DL
MEAN CORPUSCULAR VOLUME [5]: 60.57 fL
MONOCYTE [5]: 1.63%
NEUTROPHIL [5]: 14.93%
PLATELET COUNT [5]: 1101.67 x10E3/uL
ALANINE AMINOTRANSFERASE [6]: 31.67 u/L
ALBUMIN [6]: 3.83 G/DL
ALKALINE PHOSPHATASE [6]: 430.67 u/L
ASPARTATE AMINOTRANSFERASE [6]: 87 u/L
BLOOD UREA NITROGEN [6]: 14.33 mg/dL
CARBON DIOXIDE [6]: 39 mmol/L
CHLORIDE [6]: 104 MEQ/L
CHOLESTEROL [6]: 66 mg/dL
CREATINE PHOSPHOKINASE [6]: 441.67 u/L
CREATININE [6]: 0.7 mg/dL
GLUCOSE [6]: 125.67 mg/dL
LACTATE DEHYDROGENASE [6]: 397.67 u/L
LIPASE [6]: 12.33 u/L
PHOSPHORUS [6]: 9.87 mg/dL
POTASSIUM [6]: 5.93 MEQ/L
SODIUM [6]: 145 MEQ/L
TOTAL BILIRUBIN [6]: 0.37 mg/dL
TOTAL PROTEIN [6]: 6.27 G/DL
URIC ACID [6]: 0.67 mg/dL
ABSOLUTE BASOPHIL [7]: 40 cells/µL
ABSOLUTE EOSINOPHIL [7]: 60 cells/µL
ABSOLUTE LYMPHOCYTE [7]: 9180 cells/µL
ABSOLUTE MONOCYTE [7]: 300 cells/µL
BASOPHIL [7]: 0.33%
EOSINOPHIL [7]: 0.53%
ERYTHROCYTE COUNT [7]: 7.09 x10E6/uL
HEMATOCRIT [7]: 45.93%
HEMOGLOBIN [7]: 14.27 G/DL
LEUKOCYTE COUNT [7]: 11.66 x10E3/uL
LYMPHOCYTE [7]: 78.7%
MEAN CORPUSCULAR HEMOGLOBIN [7]: 20.07 pg
MEAN CORPUSCULAR HEMOGLOBIN CONCENTRATION [7]: 31 G/DL
MEAN CORPUSCULAR VOLUME [7]: 64.77 fL
MONOCYTE [7]: 2.47%
NEUTROPHIL [7]: 17.23%
PLATELET COUNT [7]: 1151.67 x10E3/uL
ALANINE AMINOTRANSFERASE [8]: 38 u/L
ALBUMIN [8]: 3.8 G/DL
ALKALINE PHOSPHATASE [8]: 546.67 u/L
ASPARTATE AMINOTRANSFERASE [8]: 81.67 u/L
BLOOD UREA NITROGEN [8]: 16.67 mg/dL
CARBON DIOXIDE [8]: 38.67 mmol/L
CHLORIDE [8]: 105.67 MEQ/L
CHOLESTEROL [8]: 70.67 mg/dL
CREATINE PHOSPHOKINASE [8]: 634.67 u/L
CREATININE [8]: 0.6 mg/dL
GLUCOSE [8]: 204.33 mg/dL
LIPASE [8]: 283.33 u/L
PHOSPHORUS [8]: 9.93 mg/dL
POTASSIUM [8]: 6.43 MEQ/L
SODIUM [8]: 146 MEQ/L
